Columns and labels:
[1] = target: T1, human CYP11B1 (Homo sapiens, UniProt P15538); assay: G-402 cellular enzyme assay, human CYP11B1 (cortisol release, HTRF); format: cell-based; settings: G-402 cells, 1 μM Deoxycortisol
T1 construct: The expression plasmids contains the ORF for either human/cyno CYP11B1 or CYP11B2; expressed in transfected cells
T1 sequence (P15538 25-503): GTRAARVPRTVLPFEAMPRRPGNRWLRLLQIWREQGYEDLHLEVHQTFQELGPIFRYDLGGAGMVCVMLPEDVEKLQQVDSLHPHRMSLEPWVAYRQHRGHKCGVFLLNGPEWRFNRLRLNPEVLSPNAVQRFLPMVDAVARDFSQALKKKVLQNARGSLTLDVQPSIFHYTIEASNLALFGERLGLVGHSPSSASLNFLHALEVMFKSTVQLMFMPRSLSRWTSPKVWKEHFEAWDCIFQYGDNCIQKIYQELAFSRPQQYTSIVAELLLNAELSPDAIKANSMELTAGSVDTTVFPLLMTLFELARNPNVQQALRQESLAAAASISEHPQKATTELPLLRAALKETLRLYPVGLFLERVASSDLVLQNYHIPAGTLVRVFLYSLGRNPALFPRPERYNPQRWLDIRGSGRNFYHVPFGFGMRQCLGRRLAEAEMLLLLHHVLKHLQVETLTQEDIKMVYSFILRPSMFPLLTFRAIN
Text: Herein we identified the use of the G-402 cell line as a host cell to ectopically express (transiently or stably) enzymes of the CYP11 family. Specifically we developed stable G-402 cells expressing ectopically human CYP11B1, human CYP11B2, human CYP11A1, cynmolgus CYP11B1 or cynomolgus CYP11B2 enzyme activity. Importantly the identified cell line G-402 expresses co-factors (adrenodoxin and adrenodoxin reductase) important for the activity of the CYP11 family and no relevant enzyme activity of the CYP11 family (in comparison to H295R cells) was detected in these cells. Therefore the G-402 cell line is uniquely suited as a host cell for the ectopic expression of enzymes from the CYP11 family.
G-402 cells can be obtained from ATCC (CRL-1440) and were originally derived from a renal leiomyoblastoma.
The expression plasmids contains the ORF for either human/cyno CYP11B1 or CYP11B2 under the control of a suitable promoter (CMV-promoter) and a suitable resistance marker (neomycin). […] Individual cell-clones are then selected and assessed for displaying the desired enzymatic activity using 11-Deoxycorticosterone (Cyp11B2) or 11-Deoxycortisol (Cyp11B1) as a substrate. […]
[formula] wherein, A is the maximum y value, B is the EC50 factor determined using XLFit, C is the minimum y value and D is the slope value. […]

[2] = tested on: rat model of chronic kidney disease; settings: cited from earlier work; for plasma aldosterone: FAD286: 4 weeks of treatment, spironolactone: 4 and 8 weeks of treatment; for angiotensin II and salt-stimulated PAI-1 mRNA expression in the aorta and the heart / renal effects of angiotensin II and high salt (albuminuria, azotemia, renovascular hypertrophy, glomerular injury, PAI-1, osteopontin mRNA, tubulointerstitial fibrosis): rat, in vivo
[3] = tested on: rats with experimental heart failure; settings: rat, in vivo; cited from earlier work
[4] = tested on: patients with primary aldosteronism; settings: cited from earlier work

SMILES	plasma aldosterone [2]	angiotensin II and salt-stimulated PAI-1 mRNA expression in the aorta and the heart [2]	renal effects of angiotensin II and high salt (albuminuria, azotemia, renovascular hypertrophy, glomerular injury, PAI-1, osteopontin mRNA, tubulointerstitial fibrosis) [2]	other results
CN1C(=O)CCc2c1ccc(-c1n[nH]cc1COC1CN(C(=O)c3cnn(C)c3)C1)c2F [Example 66, 5-Fluoro-1-methyl-6-[4-[[1-(1-methylpyrazole-4-carbonyl)azetidin-3-yl]oxymethyl]-1H-pyrazol-3-yl]-3,4-dihydroquinolin-2-one]	–	–	–	EC50 [1]: > 30 nM
N#Cc1ccc(C2CCCc3cncn32)cc1 (centres unmarked) [FAD286]	reduced	not	prevented these renal effects	blood pressure and cardiovascular function and structure [3]: improved
N#Cc1ccc([C@H]2CCc3cncn32)c(F)c1 [LCI699]	–	–	–	blood pressure ([4]; human, in vivo): mildly decreased; hypokalemia ([4]; human, in vivo): corrected; circulating aldosterone levels ([4]; orally active): significantly lower
CC(=O)S[C@@H]1CC2=CC(=O)CC[C@]2(C)[C@H]2CC[C@@]3(C)[C@@H](CC[C@@]34CCC(=O)O4)[C@H]12 [spironolactone]	increased	enhanced	prevented these renal effects	–

Source: patent US9790200B2, “Dihydroquinoline pyrazolyl compounds” (Hoffmann-La Roche Inc., priority 2015, dated 2017)
